Test systems include LOX IMVI melanoma; M14 melanoma; NCI-H226 lung; NCI-H522 lung; SN12C renal; SNB-19 CNS; U251 CNS; HCT-116 colon; HOP-92 NSCLC.
Holding throughout (test): DTP human tumour cell line panel, 48 h

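Growth conditions: 96-well plates. Treatment: test compound, 48 hours, 5 concentrations. Analysis: linear interpolation between bracketing concentrations; unreached endpoints set to highest concentration. At the GI50, growth is halved. TGI: total growth inhibition.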

The term TGI denotes the concentration at which net growth stops. The low end stands for more potent growth arrest, the high end for less potent growth arrest. For orientation: GI50 means the concentration that inhibits growth by half.

Regarding `O=C(O)c1cc(/C=C/c2cc(O)ccc2O)ccc1O`, the TGI with LOX IMVI melanoma, with M14 melanoma, with NCI-H226 lung, with NCI-H522 lung, in the assay on SN12C renal and in the assay on SNB-19 CNS was greater than 10 µM throughout. In the assay on U251 CNS, this compound came in with a total growth inhibition concentration (TGI) greater than 10 µM.
For `CC1C[C@H](C)CC(C(O)CC2CC(=O)N(Cc3ccccc3)C(=O)C2)C1O` (stereo partly drawn), the concentration for total growth inhibition (TGI) in the assay on HCT-116 colon, in the assay on HOP-92 NSCLC, with LOX IMVI melanoma, in the assay on M14 melanoma, in the assay with NCI-H226 lung and in the assay with NCI-H522 lung was greater than 100 µM in each case. Further, the total growth inhibition concentration (TGI) in the assay with SN12C renal, in the assay with SNB-19 CNS and with U251 CNS was greater than 100 µM throughout.
As to `O=C1Nc2c(C(F)(F)F)cccc2[C@@]1(c1ccc(O)cc1)c1ccc(OC(F)(F)F)cc1`, the GI50 is less than 17.2 nM in the assay on HCT-116 colon; 13.6 nM in the assay on HOP-92 NSCLC; less than 10 nM in the assay on LOX IMVI melanoma; 53.7 nM in the assay with M14 melanoma; 0.0108 µM in the assay on NCI-H226 lung; less than 10 nM in the assay on NCI-H522 lung. In addition, the GI50 is less than 10 nM in the assay with SN12C renal, 28.5 nM with SNB-19 CNS and 319 nM with U251 CNS. Moreover, the TGI in the assay on HOP-92 NSCLC was 0.0802 µM; in the assay on LOX IMVI melanoma, less than 0.0137 µM; in the assay on M14 melanoma, 14.1 µM; with NCI-H226 lung it was 0.0273 µM; in the assay with NCI-H522 lung, less than 0.0194 µM; in the assay on SN12C renal, less than 0.011 µM. Moreover, the TGI was 0.0974 µM with SNB-19 CNS and 20.1 µM with U251 CNS.
With `O=C(c1ccccc1)N1C2CCC1C(C(F)(F)F)=C2C(F)(F)F`, the TGI in the assay on HCT-116 colon, in the assay with HOP-92 NSCLC, with LOX IMVI melanoma, with M14 melanoma, with NCI-H226 lung and with NCI-H522 lung was greater than 100 µM each time. For the same compound, the TGI with SN12C renal, with SNB-19 CNS and with U251 CNS was greater than 100 µM in each case.
For the compound `COc1c(C(=O)c2ccc([N+](=O)[O-])cc2)cc(C(C)(C)C)cc1C(C)(C)C`, the total growth inhibition concentration (TGI) is 62.9 µM in the assay on HCT-116 colon; 27.7 µM in the assay on LOX IMVI melanoma; greater than 100 µM with M14 melanoma; 56.9 µM in the assay on NCI-H522 lung; greater than 100 µM with SN12C renal; greater than 100 µM in the assay with SNB-19 CNS. In the assay on U251 CNS, this compound came in with a TGI of 50.1 µM.
On to `CC(=O)OC1CCCn2c1nc1c2C(=O)C(C)=C(N2CC2)C1=O` (stereo not drawn), for which the TGI stood at 1.96 µM in the assay on HCT-116 colon; 54.6 µM in the assay with HOP-92 NSCLC; 1.01 µM in the assay on LOX IMVI melanoma; 0.337 µM in the assay on M14 melanoma; 0.944 µM in the assay on NCI-H226 lung; 0.636 µM with NCI-H522 lung. For the same compound, the values for the total growth inhibition concentration (TGI) with SN12C renal, in the assay with SNB-19 CNS and in the assay on U251 CNS were 1.5 µM, 1.38 µM and 0.533 µM, respectively.
`CC1SC2=NC3=C(c4ccccc4C3=O)C(c3ccc(Cl)cc3)N2C1=O` (stereo not drawn): the TGI was greater than 100 µM with HOP-92 NSCLC; greater than 100 µM with M14 melanoma; greater than 100 µM in the assay with NCI-H226 lung; 87.8 µM with NCI-H522 lung; greater than 100 µM with SN12C renal; greater than 100 µM in the assay with SNB-19 CNS. The total growth inhibition concentration (TGI) in the assay with U251 CNS is greater than 100 µM.
For `NC(N)=N/N=C/c1c(-c2cc(Cl)sc2Cl)nc2sccn12`, the GI50 in the assay with M14 melanoma was greater than 50000 nM; with NCI-H226 lung it was 7.89 µM; in the assay with NCI-H522 lung, 1760 nM; in the assay with SN12C renal, 642 nM; with U251 CNS, 799 nM. Also, the TGI in the assay on M14 melanoma is greater than 50 µM; with NCI-H226 lung, 18.9 µM; in the assay on NCI-H522 lung, greater than 50 µM; with SN12C renal, 1.41 µM; in the assay on U251 CNS, 1.56 µM.
Take `CC1CC(=O)Nc2ccccc2N1C(=O)CN1CCC(CCCCN(C)C)CC1` (stereo not drawn): the concentration for total growth inhibition (TGI) in the assay on HCT-116 colon, in the assay on LOX IMVI melanoma, in the assay on M14 melanoma, with NCI-H226 lung, with NCI-H522 lung and with SN12C renal was greater than 100 µM each time. The concentration for total growth inhibition (TGI) with SNB-19 CNS and in the assay with U251 CNS was greater than 100 µM in each case.
Regarding `CC(=O)c1ccc(OCC(O)CO)cc1` (stereo not drawn), the concentration for total growth inhibition (TGI) with HCT-116 colon was 33.5 µM; in the assay with HOP-92 NSCLC, greater than 100 µM; in the assay on M14 melanoma, greater than 100 µM; in the assay with NCI-H226 lung, greater than 100 µM; in the assay on NCI-H522 lung, greater than 100 µM; in the assay on SN12C renal it was greater than 100 µM. For the same compound, the concentration for total growth inhibition (TGI) with SNB-19 CNS and in the assay on U251 CNS was greater than 100 µM in each case.
Turning to `CC[P+](C)(C)c1ccccc1`, the TGI in the assay with LOX IMVI melanoma, in the assay on M14 melanoma, in the assay with SN12C renal, in the assay on SNB-19 CNS and in the assay with U251 CNS was greater than 100 µM in each case.
For the compound `CCOC(=O)CSC(=O)NCCCl`, the concentration for total growth inhibition (TGI) in the assay on HCT-116 colon, in the assay on HOP-92 NSCLC, in the assay with M14 melanoma, in the assay on NCI-H226 lung, with NCI-H522 lung and with SN12C renal was greater than 100 µM in each case. Further, the concentration for total growth inhibition (TGI) in the assay with SNB-19 CNS and with U251 CNS was greater than 100 µM each time.
Turning to `O=C1c2ccccc2C(=O)N1CCN(CCN1C(=O)c2ccccc2C1=O)Cn1cccn1`, the total growth inhibition concentration (TGI) in the assay with HCT-116 colon is 31.6 µM; with HOP-92 NSCLC, greater than 100 µM; in the assay with LOX IMVI melanoma, greater than 100 µM; in the assay with M14 melanoma, greater than 100 µM; in the assay with NCI-H522 lung, greater than 100 µM; in the assay with SN12C renal it was greater than 100 µM. Further, the TGI in the assay with SNB-19 CNS and in the assay on U251 CNS was greater than 100 µM each time.
As for `NNC(=O)CNC(=O)c1ccc(Cl)cc1Cl`, the concentration for total growth inhibition (TGI) with HCT-116 colon, in the assay on HOP-92 NSCLC, with M14 melanoma, with NCI-H226 lung, in the assay with NCI-H522 lung and in the assay on SN12C renal was greater than 100 µM each time. Further, the TGI in the assay on SNB-19 CNS and with U251 CNS was greater than 100 µM in each case.
On to `CC(=O)Nc1cc(N(CCOS(C)(=O)=O)CCOS(C)(=O)=O)ccc1N=O`, for which the total growth inhibition concentration (TGI) with HCT-116 colon, in the assay with HOP-92 NSCLC, in the assay on M14 melanoma, in the assay on NCI-H226 lung, in the assay with NCI-H522 lung and in the assay with SNB-19 CNS was greater than 100 µM each time. Further, in the assay with U251 CNS, the TGI is greater than 100 µM.
As for `CC(/C(=N\Nc1ccccc1)c1ccc(O)cc1)C1C(=O)Oc2ccccc21` (stereo not drawn), the TGI in the assay with HCT-116 colon, in the assay with LOX IMVI melanoma, with M14 melanoma, in the assay with SN12C renal, in the assay on SNB-19 CNS and with U251 CNS was greater than 100 µM each time.
On to `N#Cc1c2c(c(N=P(c3ccccc3)(c3ccccc3)c3ccccc3)n3c1nc1ccccc13)CCCC2`, for which the TGI is greater than 100 µM with HCT-116 colon; 76.3 µM with LOX IMVI melanoma; greater than 100 µM in the assay on M14 melanoma; 22.4 µM in the assay on NCI-H226 lung; 41.8 µM in the assay with NCI-H522 lung; 39.6 µM in the assay on SN12C renal. For the same compound, the total growth inhibition concentration (TGI) was determined as 99.2 µM in the assay on SNB-19 CNS and 77.9 µM in the assay with U251 CNS.
For the compound `Cc1cc2c(cc1C)[n+](=O)c(C(=O)C/C(=N/OCCCc1ccccc1)C(=O)Nc1cc(Cl)ccc1Cl)c(C)n2[O-]`, the total growth inhibition concentration (TGI) with HCT-116 colon, with LOX IMVI melanoma, in the assay on M14 melanoma, in the assay with NCI-H226 lung, with NCI-H522 lung and in the assay on SN12C renal was greater than 100 µM throughout. Besides, the TGI in the assay with SNB-19 CNS and in the assay on U251 CNS was greater than 100 µM throughout.
Take `CO[C@@H]1C=C[C@@]23c4cc5c(cc4C(=O)O[C@H]2CN(C)[C@H]3C1)OCO5`: the TGI with HCT-116 colon, in the assay on HOP-92 NSCLC, in the assay with LOX IMVI melanoma, in the assay on M14 melanoma, with NCI-H522 lung and with SN12C renal was greater than 100 µM in each case. For the same compound, the TGI in the assay on SNB-19 CNS and with U251 CNS was greater than 100 µM each time.
Turning to `Cc1ccc(NC(=O)C(=O)C(C#N)c2nc(-c3ccc(-c4ccccc4)cc3)cs2)c(C)c1` (stereo not drawn), the TGI in the assay on HCT-116 colon is greater than 100 µM; in the assay on HOP-92 NSCLC it was greater than 1 µM; in the assay with LOX IMVI melanoma, greater than 100 µM; in the assay with M14 melanoma it was greater than 100 µM; with NCI-H226 lung, greater than 100 µM; in the assay on SN12C renal it was greater than 100 µM. Besides, the TGI with SNB-19 CNS and in the assay with U251 CNS was greater than 100 µM each time.
As for `CCc1c(Cc2[nH]c(Cc3[nH]c(C=O)c(C)c3CC)c(CC)c2CC)[nH]c(C=O)c1C`, the concentration for total growth inhibition (TGI) in the assay with HCT-116 colon, in the assay on LOX IMVI melanoma, with M14 melanoma, in the assay with NCI-H226 lung, in the assay with NCI-H522 lung and with SN12C renal was greater than 100 µM each time. Moreover, the concentration for total growth inhibition (TGI) in the assay on SNB-19 CNS and with U251 CNS was greater than 100 µM each time.
In the case of `COC(=O)C(CC(C)C)NC(=O)NC12CC3CC(CC(F)(C3)C1)C2` (stereo not drawn), the TGI in the assay on HCT-116 colon, in the assay on HOP-92 NSCLC, in the assay with LOX IMVI melanoma, in the assay with M14 melanoma, in the assay with NCI-H522 lung and in the assay with SNB-19 CNS was greater than 100 µM in each case. This compound also yielded a total growth inhibition concentration (TGI) in the assay on U251 CNS greater than 100 µM.
As to `CCCCCCCCOCC(O)COC(=O)CCCCCCC` (stereo not drawn), the total growth inhibition concentration (TGI) was greater than 100 µM in the assay with HCT-116 colon; 82.3 µM with HOP-92 NSCLC; greater than 100 µM in the assay on LOX IMVI melanoma; greater than 100 µM in the assay on M14 melanoma; greater than 100 µM with NCI-H226 lung; greater than 100 µM with SN12C renal. The concentration for total growth inhibition (TGI) with SNB-19 CNS and with U251 CNS was greater than 100 µM throughout.

For the origin of these results see PubChem BioAssay (NCI).
